# Data: patent publication US7875617B2, “3,4-dihydro-2-naphthamide derivatives as selective dopamine D3 ligands” (Institut National de la Sante et de la Recherche Medicale …, priority 2005, dated 2011)
# Experiments:
# [1] = molecular target: T1, human recombinant dopamine D3 receptor (Homo sapiens, UniProt P35462); test: inhibition of [125I]iodosulpride binding, D3 receptor; settings: for selectivity ratio, D2 receptor affinity relative to D3 receptor affinity: D2 vs D3, times lower affinity at D2; for Ki: [125I]iodosulpride binding, cells expressing human recombinant receptor, read-out: affinity for the D3 receptor
# T1 construct: expressed in transfected cells
# Method: (§1) The activity of the derivatives of formula (I) according to the invention was evaluated with respect to cells expressing human recombinant dopamine receptors. The inhibition constants (Ki) were measured by inhibition of [^125I]iodosulpride binding as described by Sokoloff et al. (1992). The degree of stimulation of the D3 receptor was determined by measuring the incorporation of [^3H]-thymidine in NG 108-15 cells expressing the D3 receptor (Pilon et al., 1994; Sautel et al., 1995).
# [2] = molecular target: T2, human D3 receptor (Homo sapiens, UniProt P35462); test: mitogenesis assay, [3H]thymidine incorporation in NG 108-15 cells expressing the D3 receptor; format: cell-based; settings: for EC50: read-out: 50% effective concentration (EC50), mitogenesis; for intrinsic activity (efficacy): relative to quinpirole (full agonist, efficacy 1), nafadotride is full antagonist (efficacy 0)
# T2 construct: expressed in transfected cells; host or cells: NG 108-15 cells
# Method: The activity of the derivatives of formula (I) according to the invention was evaluated with respect to cells expressing human recombinant dopamine receptors.
# I-28 activity in vitro towards recombinant D3 receptor has been determined using a validated mitogenesis assay which was performed as follows:
# After a 24 h-culture, cells were washed twice with culture medium without fetal calf serum and incubated for 16 hours with drugs in four replicates. Then [^3H]thymidine (1 μCi per well) was added for 2 hours and cells were harvested by vacuum filtration through Whatman GF/C fiber filters using an automated cell harvester (Brandel-Beckman) and rinsed 10 times with 200 μl 50 mM potassium phosphate buffer containing 150 mM NaCl. Radioactivity retained on filters was counted by liquid scintagraphy.
# [3] = test system: MK-801-induced hyperactivity in mice; test: MK-801-induced hyperactivity in mice; format: in vivo
# Method: (§2) Activity of I-28 in vivo was assessed by using a simple test recently developed (Leriche et al. 2003 and international PCT application WO 2004/084952).
# (§3) Male Swiss mice (Charles River, France), weighing 26-28 g, were housed six per cage (25×15×13 cm), on a 12 h/12 h light/dark cycle (lights on at 07:00 a.m.), with food and water freely available. Room temperature ranged from 20° C. to 22° C. and humidity varied between 55% and 65%.
# (§4) Dizocilpine (MK-801) [(+)-5-methyl-10,11-dihydro-5H-dibenzo[a,d]cyclohepten-5,10-imine maleate] (Sigma) was dissolved in saline (0.9% NaCl). I-28 was dissolved in a few drops of HCl and distilled water, and the pH of the solution was adjusted to pH 5 using NaOH. The doses of I-28 are expressed as the weight of the base. The compounds were injected i.p. in a volume of 5 ml·kg^−1.
# All experiments were conducted between 2.00 p.m. and 6.00 p.m., and the animals were kept in the test room at least 1 hour before recording their activity. The locomotor activity was measured in an actimeter that was composed of eight individual activity cages (30×15×18 cm, with sawdust on the floor) transected by infrared beams (Imetronic, Pessac, France). Counts for forward horizontal activity were incremented each time the animal moved from one-half part of the cage to the other, corresponding to disruption of two crossed parallel beams distant of 14 cm. In time-course studies, counts were summed every 5 minute.
# Mice were injected with either Vehicle (distilled water pH 5) or I-28 (0.1, 0.3, 1 or 3 mg·kg^−1), and their horizontal locomotor activity was measured for 30 minutes (spontaneous locomotor activity). They were subsequently treated with saline or MK-801 (0.12 mg·kg^−1) and the activity was measured for 1 hour (MK-801-induced locomotor activity).
# [4] = molecular target: T3, human recombinant dopamine D2 receptor (Homo sapiens, UniProt P14416); test: inhibition of [125I]iodosulpride binding, D2 receptor; settings: cells expressing human recombinant receptor, read-out: affinity for the D2 receptor
# T3 construct: expressed in transfected cells
# Method: as §1
# [5] = test system: spontaneous locomotor activity of mice; test: spontaneous locomotor activity during habituation in mice; format: in vivo
# Method: as §2, §3, §4
# All experiments were conducted between 2.00 p.m. and 6.00 p.m., and the animals were kept in the test room at least 1 hour before recording their activity. The locomotor activity was measured in an actimeter that was composed of eight individual activity cages (30×15×18 cm, with sawdust on the floor) transected by infrared beams (Imetronic, Pessac, France). […]
# Mice were injected with either Vehicle (distilled water pH 5) or I-28 (0.1, 0.3, 1 or 3 mg·kg^−1), and their horizontal locomotor activity was measured for 30 minutes (spontaneous locomotor activity). […]
# [6] = NG 108-15 cells transfected with the human D3 receptor
# T2 sequence (P35462 whole entry): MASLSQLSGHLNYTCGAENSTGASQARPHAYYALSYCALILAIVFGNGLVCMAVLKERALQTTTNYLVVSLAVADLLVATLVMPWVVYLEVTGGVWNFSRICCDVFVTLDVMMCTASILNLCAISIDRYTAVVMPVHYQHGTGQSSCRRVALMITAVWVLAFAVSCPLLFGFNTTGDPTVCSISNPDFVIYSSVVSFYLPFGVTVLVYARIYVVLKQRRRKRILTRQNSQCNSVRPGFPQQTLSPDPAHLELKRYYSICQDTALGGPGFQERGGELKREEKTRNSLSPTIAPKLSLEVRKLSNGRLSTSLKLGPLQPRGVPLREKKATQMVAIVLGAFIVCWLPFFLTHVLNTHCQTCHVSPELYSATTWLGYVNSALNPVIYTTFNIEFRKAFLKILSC
# T1 sequence (P35462 whole entry): as above
# T3 sequence (P14416 whole entry): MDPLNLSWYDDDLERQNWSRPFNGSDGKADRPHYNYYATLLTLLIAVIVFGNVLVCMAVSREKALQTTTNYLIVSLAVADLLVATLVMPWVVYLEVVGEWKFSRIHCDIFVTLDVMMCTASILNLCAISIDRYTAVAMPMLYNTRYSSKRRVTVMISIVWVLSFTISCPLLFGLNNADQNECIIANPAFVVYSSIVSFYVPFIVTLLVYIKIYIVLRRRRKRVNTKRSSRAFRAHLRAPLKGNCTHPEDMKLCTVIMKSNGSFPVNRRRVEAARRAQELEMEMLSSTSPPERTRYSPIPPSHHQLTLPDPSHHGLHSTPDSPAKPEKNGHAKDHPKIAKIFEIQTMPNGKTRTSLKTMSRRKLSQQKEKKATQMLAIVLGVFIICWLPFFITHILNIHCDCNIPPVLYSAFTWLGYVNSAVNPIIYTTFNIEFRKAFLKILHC
"selectivity ratio, D2 receptor affinity relative to D3 receptor affinity [1]",Ki [1],"EC50 [2, 6]",intrinsic activity (efficacy) [2],blood-brain barrier passage ([3]; inferred from activity after systemic administration in mice),Ki [4],"maximal response, % of that produced by quinpirole ([2]; NG 108-15 cells transfected with the human D3 receptor, mean ±SEM)",SMILES,"inhibition of MK-801-induced hyperactivity ([3]; mice, 0.3 mg·kg−1 i.p., P=0.031)","inhibition of MK-801-induced hyperactivity ([3]; mice, 1.0 mg·kg−1 i.p., P=0.0073)","inhibition of MK-801-induced hyperactivity ([3]; mice, 3.0 mg·kg−1 i.p., P=0.0012)","ED50, inhibition of MK-801-induced hyperactivity ([3]; mice, i.p., MK-801 0.12 mg·kg−1)","change of spontaneous activity ([5]; 3.0 mg·kg−1 i.p., P=0.042)","effect on spontaneous locomotor activity during habituation ([5]; i.p., doses below 3.0 mg·kg−1, 30 minutes)"
160,0.71 nM,2.2 nM,0.85,–,–,–,"O=C(NCCCCN1CCN(c2cccc(O)c2)CC1)C1=Cc2ccccc2CC1 [Example 4, N-[4-[(3-hydroxyphenyl)piperazine-1-yl]butyl]-3,4-dihydronaphtalene-2-carboxamide]",–,–,–,–,–,–
–,2.1 nM,6.3 nM,0.37,crosses the blood-brain barrier,318 nM,37±2%,N#Cc1cccc(N2CCN(CCCCNC(=O)C3=Cc4ccccc4CC3)CC2)c1 [I-28],36.7%,46.6%,57.3%,about 0.3 mg·kg−1,−25%,no effect
–,–,–,0,–,–,–,"CCCCN1CCCC1CNC(=O)c1cc(C#N)c2ccccc2c1OC (centres unmarked) [nafadotride, reference compound]",–,–,–,–,–,–
59,0.74 nM,–,–,–,44 nM,–,O=C(NCCCCN1CCN(c2cccc(O)c2)CC1)c1ccc2ccccc2c1 [reference compound],–,–,–,–,–,–
